According to BindingDB's records for doi:10.7270/Q2DV1HH8 (Burnham Center For Chemical Genomics, 2012):
Several values for one entry are separate records, joined by “and”; a condition that tells them apart may be missing. Equal entries are not always repeated. Structures can show the parent of a compound that is named as a salt. Numbered stars: 1 amine (or outer) side, 2 acyl side, 3 side chain; on linkers, the order of the positions; unused ones are H or OH. Bridge positions count the residues as written; N and C are the ends. Square brackets hold non-standard residues; d marks the D form. Peptide text beside a SMILES is read from it. ξ: configuration not given here. X1 = CC[C@H](CCC[C@@H](O)[C@@H](C)C(=O)O[C@H](C)[C@@H](C)C/C=C(C)\C(=C/C(=O)[*:1])OC)O[*:2]; NMeξIle = CC[C@H](C)C(NC)C(=O)O; NMeV = CN[C@H](C(=O)O)C(C)C; NMeS = CN[C@@H](CO)C(=O)O

These molecules were tested against T1, Protein skinhead-1 (Caenorhabditis elegans, UniProt P34707). Conditions: not given.
T1 sequence (P34707 whole entry): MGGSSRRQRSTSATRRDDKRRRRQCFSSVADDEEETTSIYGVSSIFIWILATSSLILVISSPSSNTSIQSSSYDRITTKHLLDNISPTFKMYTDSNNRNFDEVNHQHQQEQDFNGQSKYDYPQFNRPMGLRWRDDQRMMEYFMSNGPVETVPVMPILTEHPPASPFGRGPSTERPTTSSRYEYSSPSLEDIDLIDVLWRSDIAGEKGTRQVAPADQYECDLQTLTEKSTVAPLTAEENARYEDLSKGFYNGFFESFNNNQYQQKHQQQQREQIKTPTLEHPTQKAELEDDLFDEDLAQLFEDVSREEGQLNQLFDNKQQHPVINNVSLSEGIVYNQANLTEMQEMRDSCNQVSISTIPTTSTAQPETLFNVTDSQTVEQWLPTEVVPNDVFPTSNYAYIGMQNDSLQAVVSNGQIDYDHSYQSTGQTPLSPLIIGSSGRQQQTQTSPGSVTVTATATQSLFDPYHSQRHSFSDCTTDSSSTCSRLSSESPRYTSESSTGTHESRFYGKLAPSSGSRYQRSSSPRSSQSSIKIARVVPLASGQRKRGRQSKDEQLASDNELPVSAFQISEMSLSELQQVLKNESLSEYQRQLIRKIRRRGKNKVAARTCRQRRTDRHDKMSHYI

SMILES | IC50
Nc1ccc(/C=C2\C=Cc3ccccc32)cc1 | 45 µM
Cc1ccc(N=CC(C(=O)c2ccco2)C(=O)C(F)(F)F)cc1Cl (stereo unspecified) [2-{[(3-chloro-4-methylphenyl)amino]methylene}-4,4,4-trifluoro-1-(2-furyl)-1,3-butanedione] | 14.3 µM
O=C1C2=CCC=CC2Oc2ccc(Br)cc21 (stereo unspecified) [SMR000327218] | > 100 µM
Cc1ccc2nc(-c3cccnc3)c(NC3CCCCC3)n2c1 | 23.5 µM
O=C1C=CC(=O)c2c(O)c(N3CCN(CCOCCO)CC3)c(Br)c(O)c21 [6-bromo-5,8-dihydroxy-7-[4-[2-(2-hydroxyethoxy)ethyl]piperazin-1-yl]naphthalene-1,4-dione;hydrochloride] | 75.5 µM
C=c1[nH]n(-c2ccccc2)c(=O)c1=CC=C1N(C)c2ccccc2C1(C)C [SMR000175131] | 87.3 µM and 14.4 µM
O=C(CC=Nc1ccc(Br)cc1F)c1ccco1 [SMR000293180] | 2.19 µM
O=C(CC=Nc1cccc(F)c1)c1cccs1 | 46.7 µM
O=C(CC=Nc1ccc(F)c(F)c1)c1cccs1 [3-[(3,4-difluorophenyl)amino]-1-(2-thienyl)-2-propen-1-one] | 11.4 µM
Cc1ccc(Cl)c(N=CCC(=O)c2ccccc2)c1 [(E)-3-[(2-chloranyl-5-methyl-phenyl)amino]-1-phenyl-prop-2-en-1-one] | 68.8 µM
Cc1cc(C)c2ccc3c(C)c(C)[nH]c3c2n1 [MLS000729064] | 41.1 µM
CCOC(=O)c1c(C)oc2c(F)c(F)c(F)c(F)c2c1=O [SMR000041624] | 45.5 µM
O=C(/N=C1\[N-]c2ccc(Br)c[n+]2Cc2ccccc21)c1ccc([N+](=O)[O-])cc1[N+](=O)[O-] [N-(2-bromanyl-11H-pyrido[1,2-b][2,4]benzodiazepin-6-ylidene)-2,4-dinitro-benzamide] | 2.78 µM
COC(=O)c1cc(=O)nc2sccn12 | 21.9 µM
O=C(CC=Nc1ccccn1)c1ccccc1 [(Z)-1-phenyl-3-(pyridin-2-ylamino)prop-2-en-1-one] | 53.7 µM
O=C1N[C@@H]2C(=C[C@H](O)[C@@H](O)[C@H]2O)c2cc3c(c(O)c21)OCO3 [(2S,3R,4S,4aR)-2,3,4,7-Tetrahydroxy-3,4,4a,5-tetrahydro-2H-[1,3]dioxolo[4,5-j]phenanthridin-6-one] | 51.4 µM
O=C(CC=Nc1ccc(Br)cc1)c1cccnc1 [SMR000225438] | 68.9 µM
O=C(c1ccco1)C(C=Nc1ccc(Br)cc1)C(=O)C(F)(F)F (stereo unspecified) [2-{[(4-bromophenyl)amino]methylene}-4,4,4-trifluoro-1-(2-furyl)-1,3-butanedione] | 21 µM
COC(=O)[C@]12OC[C@]34[C@H]([C@@H](O)[C@@H]1O)[C@@]1(C)CC(=O)C(=O)C(C)[C@@H]1C[C@H]3OC(=O)[C@H](OC(=O)/C=C(\C)C(C)C)[C@@H]24 (stereo partly drawn) [10,15,16-trihydroxy-9,13-dimethyl-17-methyloxycarbonyl-4,11-dioxo-(1R,2S,3R,6R,8R,13S,14R,15R,16S,17R)-5,18-dioxapentacyclo[12.5.0.01,6.02,17.08,13]nonadec-9-en-3-yl 3,4-dimethyl-(E)-2-pentenoate] | 75.3 µM
O=C(CC=Nc1ccccc1F)c1cccs1 [(E)-3-[(2-fluorophenyl)amino]-1-thiophen-2-yl-prop-2-en-1-one] | 27.9 µM
O=C(CC=Nc1ccc(F)cc1F)c1ccco1 [(E)-3-(2,4-difluoroanilino)-1-(2-furanyl)-2-propen-1-one] | 22.7 µM
O=C(CC=Nc1ccc(F)cc1F)c1cccs1 [(E)-3-[[2,4-bis(fluoranyl)phenyl]amino]-1-thiophen-2-yl-prop-2-en-1-one] | 5.04 µM
CC[C@@H]1CCC[C@@H](O)[C@@H](C)C(=O)O[C@H](C)[C@@H](C)C/C=C(C)\C(OC)=C/C(=O)N(C)C([C@@H](C)CC)C(=O)N(C)[C@@H](C(C)C)C(=O)N(C)[C@@H](COC)C(=O)N2CCC[C@H]2C(=O)N(C)[C@@H](C(C)C)C(=O)N2CCC[C@H]2C(=O)O1 (stereo partly specified) [MLS003235796] ([NMeξIle][NMeV][NMeS](Me)P[NMeV]P; linker N-C via X1) | 82.4 µM
CN(C)c1ccc(N=CCC(=O)c2ccco2)cc1 | 70.5 µM
O=C(CC=Nc1ccc(F)c(Cl)c1)c1ccco1 [(E)-3-(3-chloro-4-fluoroanilino)-1-(furan-2-yl)prop-2-en-1-one] | 16.7 µM
O=C1/C(=C/c2ccccn2)CCc2ccccc21 | 78.5 µM
CC1CCCCN1Cc1c(O)ccc2c(=O)c(-c3nc4ccccc4s3)c(N)oc12 (stereo unspecified) [SMR000218869] | 6.82 µM
Cc1ccc(N=CCC(=O)c2cccs2)cc1 [3-[(4-methylphenyl)amino]-1-(2-thienyl)-2-propen-1-one] | 60.3 µM
O=C(C=Cc1ccc(Br)cc1)c1ccc(N=C2NCCCS2)cc1 [MLS000391412] | 18.3 µM

Same assay, conditions: inactive by the depositor's call

SMILES | IC50
Cn1ccs/c1=N/C(=O)c1ccc(OC(F)(F)F)cc1 [SMR000589314] | 61.9 µM
Cc1cccc(C=CC(=O)c2ccc(N=C3NCCCS3)cc2)c1 [(E)-1-[4-(5,6-dihydro-4H-1,3-thiazin-2-ylamino)phenyl]-3-(3-methylphenyl)prop-2-en-1-one] | 79.9 µM
